From patent publication US7700592B2, “α2C adrenoreceptor agonists” (Schering Corporation, priority 2005, dated 2010) come the findings set out here.

The assay has as its target T1, α2C receptor (Homo sapiens, UniProt P18825).
T1 sequence (P18825 1-462): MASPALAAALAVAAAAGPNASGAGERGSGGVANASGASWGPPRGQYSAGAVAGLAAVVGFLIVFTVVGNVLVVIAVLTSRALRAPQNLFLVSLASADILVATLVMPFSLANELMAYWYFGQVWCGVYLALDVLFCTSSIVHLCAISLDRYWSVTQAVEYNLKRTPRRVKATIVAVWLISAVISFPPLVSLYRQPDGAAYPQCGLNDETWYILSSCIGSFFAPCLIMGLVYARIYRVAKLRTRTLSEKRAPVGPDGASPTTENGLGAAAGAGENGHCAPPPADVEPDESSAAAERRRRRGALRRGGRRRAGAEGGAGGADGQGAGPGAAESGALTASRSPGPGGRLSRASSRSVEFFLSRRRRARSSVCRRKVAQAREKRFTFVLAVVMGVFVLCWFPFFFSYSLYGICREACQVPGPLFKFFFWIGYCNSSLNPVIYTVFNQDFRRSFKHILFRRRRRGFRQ
The assay can be described thus: GTPγS assay, efficacy agonist activity (Emax) for α2C. The class given is biochemical. Conditions: active agonist = efficacy at α2C ≧30% Emax; functionally selective = additionally efficacy at α2A ≦30% Emax (GTPγS assay). From the text: For the purposes of this present invention, a compound is defined to be an active agonist of the α2C receptor subtype if the compound's efficacy at the α2C receptor is ≧30% Emax (GTPγS assay). A compound is a functionally selective agonist of the α2C receptor subtype over the α2A receptor subtype if the compound's efficacy at the α2C receptor is ≧30% Emax (GTPγS assay) and its efficacy at the α2A receptor is ≦30% Emax (GTPγS assay).
Efficacy agonist activity values (Emax, GTPγS assay) for α2C were determined by following the general procedure detailed by Umland et al (“Receptor reserve analysis of the human α2c-adrenoceptor using [^35S]GTPγS and cAMP functional assays” European Journal of Pharmacology 2001, 411, 211-221). For the purposes of the present invention, a compound is defined to be an active agonist of the α2C receptor subtype if the compound's efficacy at the α2C receptor is ≧30% Emax (GTPγS assay). A compound is a functionally selective agonist of the α2C receptor subtype over the α2A receptor subtype if the compound's efficacy at the α2C receptor is […] Emax (GTPγS assay) and its efficacy at the α2A receptor is ≦30% Emax (GTPγS assay).
`c1ccc2c(c1)OCCN2Cc1c[nH]cn1` [Compound 1]: the “Efficacy agonist activity (Emax, GTPγS assay) for α2C: evaluated as active or functionally selective agonist” value is reported as “active or functionally selective agonists of the α2C receptor subtype”.
With `O=[N+]([O-])c1ccc2c(c1)N(Cc1c[nH]cn1)CCO2` [Compound 3D], the “Efficacy agonist activity (Emax, GTPγS assay) for α2C: evaluated as active or functionally selective agonist” value is “active or functionally selective agonists of the α2C receptor subtype”.
For the compound `Nc1ccc2c(c1)N(Cc1c[nH]cn1)CCO2` [Compound 3E], the “Efficacy agonist activity (Emax, GTPγS assay) for α2C: evaluated as active or functionally selective agonist” value is on record as “active or functionally selective agonists of the α2C receptor subtype”.
Next, `COC(=O)Nc1ccc2c(c1)N(Cc1c[nH]cn1)CCO2` [Compound 3]: “active or functionally selective agonists of the α2C receptor subtype”; `CNC(=O)Nc1ccc2c(c1)N(Cc1c[nH]cn1)CCO2` [Compound 5]: “active or functionally selective agonists of the α2C receptor subtype”.
In the case of `COC(=O)N(C)c1ccc2c(c1)N(Cc1c[nH]cn1)CCO2` [Compound 6E] it was “active or functionally selective agonists of the α2C receptor subtype”; in that of `CNC(=O)N(C)c1ccc2c(c1)N(Cc1c[nH]cn1)CCO2` [Compound 6], “active or functionally selective agonists of the α2C receptor subtype”.
For the compound `CCNC(=O)N(C)c1ccc2c(c1)N(Cc1c[nH]cn1)CCO2` [Compound 7], the “Efficacy agonist activity (Emax, GTPγS assay) for α2C: evaluated as active or functionally selective agonist” value was “active or functionally selective agonists of the α2C receptor subtype”.
In the case of `CCOC(=O)N(C)c1ccc2c(c1)N(Cc1c[nH]cn1)CCO2` [Compound 8] it was “active or functionally selective agonists of the α2C receptor subtype”.
As to `N#Cc1ccc2c(c1)N(Cc1c[nH]cn1)CCO2` [Compound 12], the “Efficacy agonist activity (Emax, GTPγS assay) for α2C: evaluated as active or functionally selective agonist” value is “active or functionally selective agonists of the α2C receptor subtype”.
As for `N=C(N)c1ccc2c(c1)N(Cc1c[nH]cn1)CCO2` [Compound 13], the “Efficacy agonist activity (Emax, GTPγS assay) for α2C: evaluated as active or functionally selective agonist” value is reported as “active or functionally selective agonists of the α2C receptor subtype”.
Regarding `CSc1ccc2c(c1)N(Cc1c[nH]cn1)CCO2` [Compound 14B], the “Efficacy agonist activity (Emax, GTPγS assay) for α2C: evaluated as active or functionally selective agonist” value is given as “active or functionally selective agonists of the α2C receptor subtype”.
As for `CS(=O)(=O)c1ccc2c(c1)N(Cc1c[nH]cn1)CCO2` [Compound 14], the “Efficacy agonist activity (Emax, GTPγS assay) for α2C: evaluated as active or functionally selective agonist” value is on record as “active or functionally selective agonists of the α2C receptor subtype”.
Take `c1c[nH]c(-c2ccc3c(c2)N(Cc2c[nH]cn2)CCO3)c1` [Compound 15]: the “Efficacy agonist activity (Emax, GTPγS assay) for α2C: evaluated as active or functionally selective agonist” value was “active or functionally selective agonists of the α2C receptor subtype”.
Take `O=[N+]([O-])c1cc(F)c2c(c1)N(Cc1c[nH]cn1)CCO2` [Compound 19D]: the “Efficacy agonist activity (Emax, GTPγS assay) for α2C: evaluated as active or functionally selective agonist” value is reported as “active or functionally selective agonists of the α2C receptor subtype”.
In the case of `COC(=O)Nc1cc(F)c2c(c1)N(Cc1c[nH]cn1)CCO2` [Compound 19] it was “active or functionally selective agonists of the α2C receptor subtype”.
In the case of `COC(=O)Nc1cc(Cl)c2c(c1)N(Cc1c[nH]cn1)CCO2` [Compound 20], the “Efficacy agonist activity (Emax, GTPγS assay) for α2C: evaluated as active or functionally selective agonist” value is reported as “active or functionally selective agonists of the α2C receptor subtype”.
Take `COC(=O)Nc1cc2c(cc1F)OCCN2Cc1c[nH]cn1` [Compound 21]: the “Efficacy agonist activity (Emax, GTPγS assay) for α2C: evaluated as active or functionally selective agonist” value was “active or functionally selective agonists of the α2C receptor subtype”.
In the case of `O=[N+]([O-])c1ccc2c(n1)N(Cc1c[nH]cn1)CCO2` [Compound 22] it was “active or functionally selective agonists of the α2C receptor subtype”; in that of `Nc1ccc2c(c1)N(Cc1c[nH]cn1)CCS2` [Compound 24D], “active or functionally selective agonists of the α2C receptor subtype”; in that of `COC(=O)Nc1ccc2c(c1)N(Cc1c[nH]cn1)CCS2` [Compound 24], “active or functionally selective agonists of the α2C receptor subtype”.
Regarding `c1ccc2c(c1)SCCN2Cc1c[nH]cn1` [Compound 25B], the “Efficacy agonist activity (Emax, GTPγS assay) for α2C: evaluated as active or functionally selective agonist” value is listed as “active or functionally selective agonists of the α2C receptor subtype”.
As for `c1ccc2c(c1)NCCN2Cc1c[nH]cn1` [Compound 26A], the “Efficacy agonist activity (Emax, GTPγS assay) for α2C: evaluated as active or functionally selective agonist” value is given as “active or functionally selective agonists of the α2C receptor subtype”.
Take `COC(=O)N1CCN(Cc2c[nH]cn2)c2ccccc21` [Compound 26B]: the “Efficacy agonist activity (Emax, GTPγS assay) for α2C: evaluated as active or functionally selective agonist” value is reported as “active or functionally selective agonists of the α2C receptor subtype”.
Consider `CN1CCN(Cc2c[nH]cn2)c2ccccc21` [Compound 26], for which the “Efficacy agonist activity (Emax, GTPγS assay) for α2C: evaluated as active or functionally selective agonist” value is given as “active or functionally selective agonists of the α2C receptor subtype”.
As to `CC(=O)N1CCN(Cc2c[nH]cn2)c2ccccc21` [Compound 27E], the “Efficacy agonist activity (Emax, GTPγS assay) for α2C: evaluated as active or functionally selective agonist” value was “active or functionally selective agonists of the α2C receptor subtype”.
As for `O=[N+]([O-])c1ccc2c(c1)N(Cc1c[nH]cn1)CCCO2` [Compound 28D], the “Efficacy agonist activity (Emax, GTPγS assay) for α2C: evaluated as active or functionally selective agonist” value is recorded as “active or functionally selective agonists of the α2C receptor subtype”.
Next, `COC(=O)Nc1ccc2c(c1)N(Cc1c[nH]cn1)CCCO2` [Compound 28]: “active or functionally selective agonists of the α2C receptor subtype”.
`CCOC(=O)Cc1ccc2c(c1)N(Cc1c[nH]cn1)CCO2` [Compound 29]: the “Efficacy agonist activity (Emax, GTPγS assay) for α2C: evaluated as active or functionally selective agonist” value is “active or functionally selective agonists of the α2C receptor subtype”.
Turning to `O=C(Cc1ccc2c(c1)N(Cc1c[nH]cn1)CCO2)NCc1ccccc1` [Compound 30], the “Efficacy agonist activity (Emax, GTPγS assay) for α2C: evaluated as active or functionally selective agonist” value is “active or functionally selective agonists of the α2C receptor subtype”.
Next, `O=[N+]([O-])c1ccc2c(c1)N(CCc1c[nH]cn1)CCO2` [Compound 37]: “active or functionally selective agonists of the α2C receptor subtype”; `CCN(C(=O)NC)c1ccc2c(c1)N(Cc1c[nH]cn1)CCO2` [Compound 38]: “active or functionally selective agonists of the α2C receptor subtype”.
For `CNC(=O)N(c1ccc2c(c1)N(Cc1c[nH]cn1)CCO2)C(C)C` [Compound 46], the “Efficacy agonist activity (Emax, GTPγS assay) for α2C: evaluated as active or functionally selective agonist” value was “active or functionally selective agonists of the α2C receptor subtype”.
As for `CNC(=O)Nc1ccc2c(n1)N(Cc1c[nH]cn1)CCO2` [Compound 51], the “Efficacy agonist activity (Emax, GTPγS assay) for α2C: evaluated as active or functionally selective agonist” value is given as “active or functionally selective agonists of the α2C receptor subtype”.
As for `CCN(C(=O)OC)c1ccc2c(n1)N(Cc1c[nH]cn1)CCO2` [Compound 53], the “Efficacy agonist activity (Emax, GTPγS assay) for α2C: evaluated as active or functionally selective agonist” value was “active or functionally selective agonists of the α2C receptor subtype”.
On to `Brc1ccc2c(n1)N(Cc1c[nH]cn1)CCO2` [Compound 54], for which the “Efficacy agonist activity (Emax, GTPγS assay) for α2C: evaluated as active or functionally selective agonist” value is “active or functionally selective agonists of the α2C receptor subtype”.
On to `N#Cc1ccc2c(n1)N(Cc1c[nH]cn1)CCO2` [Compound 55], for which the “Efficacy agonist activity (Emax, GTPγS assay) for α2C: evaluated as active or functionally selective agonist” value was “active or functionally selective agonists of the α2C receptor subtype”.
On to `COC(=O)Nc1cc(O)c2c(c1)N(Cc1c[nH]cn1)CCO2` [Compound 57], for which the “Efficacy agonist activity (Emax, GTPγS assay) for α2C: evaluated as active or functionally selective agonist” value is given as “active or functionally selective agonists of the α2C receptor subtype”.
In the case of `CNC(=O)N(C)c1ccc2c(c1)N(CCc1c[nH]cn1)CCO2` [Compound 58] it was “active or functionally selective agonists of the α2C receptor subtype”.
With `CCN(C(=O)OCc1ccnc(N)c1)c1ccc2c(c1)N(Cc1c[nH]cn1)CCO2` [Compound 63], the “Efficacy agonist activity (Emax, GTPγS assay) for α2C: evaluated as active or functionally selective agonist” value was “active or functionally selective agonists of the α2C receptor subtype”.
